# Measurements from patent US10925872B2, “Methods of treating cochlear synaptopathy” (PIPELINE THERAPEUTICS, INC., priority 2016, dated 2021).
# Experiments:
# DCC α-fragment = DCC α-fragment Western blot, mouse ex vivo cochlea (spiral ganglion); format: cell-based, CD-1 mice; details: postnatal day 21 cochlea, 1 μM, 24 h, normalized to actin
# Excerpt: Previous reports have shown that DCC (deleted in colorectal cancer) is a γ-secretase substrate. DCC is the receptor for the guidance molecule, netrin, and its activation results in neuronal axon outgrowth, axon turning and synapse formation. Embryonic spinal cords of presenilin knockout mice treated display persistent expression of the DCC α-fragment; these fragments can enhance netrin-DCC mediated events, including axon outgrowth in cultured motor neurons (Taniguchi et al., 2003, J. Biol. Chem., 278:30425-30428, and Bai et al., 2011, Cell, 144(1): 106-18). The following studies were performed using GSM, “RO”, as well as the GSI, Compound I. RO has the structure:
# Cochleae were obtained from postnatal day 21 CD-1 mice. An opening was made in the bone at the cochlear apex to allow for fluid flow. Cochlea were incubated in serum-free growth media (DMEM-F12, N2 and B27 serum supplements, penicillin/streptomycin) with 1 μM RO or 1 μM Compound I. After 24 h, spiral ganglion were isolated and processed for Western blot. Membranes were probed with a DCC antibody recognizing the intracellular domain and bands were normalized to actin.
# inner hair cell synapses [1] = assay: Mouse noise-induced cochlear synaptopathy, local GSI (synapse counts, ABR wave I); format: in vivo, CBA/J mice
# Method: Two separate experiments were conducted using this protocol: in Experiment 1 (FIG. 7A) compound I treatment was compared to NT3, in Experiment 2 (FIG. 7B, 7C and FIG. 8) we evaluated two dose levels of compound I. For both experiments female CBA/J mice 6 weeks old (The Jackson Laboratory, Bar Harbor, Me.) were exposed, awake and unrestrained, to filtered octave band noise (8-16 kHz) for 2 hours at 98 dB SPL in a reverberant sound-exposure box. Mice were placed in a custom designed wire cage sitting atop high density 4-inch foam with the wire floor 1-inch above the foam. The noise waveform was generated and filtered with a TDT RZ6 pre-amplifier (Tucker Davis Technologies, Alachua, Fla.), amplified by a Crown XLS1000 power amplifier, and delivered by JBL 2426H Compression Driver coupled to a JBL 2730A horn. Sound levels were verified in the center of the cage using a ¼-inch condenser microphone (PCB Piezotronics, Depew, N.Y.) before each exposure. ABR was collected 1 and 14 days post-noise exposure to ensure a temporary threshold shift with no permanent threshold shift. Seventeen days after noise, mice were dosed bilaterally with crystalline Compound I, (2% in PF10*) or NT3 (2 μL of 150 ng/μL) (Experiment 1); crystalline Compound I (2% and 0.2% in PF10) (Experiment 2); and ABR was collected 14 days post-dose. Vehicle control animals received bilateral injections of PF10. Age matched naïve control animals were also used.
# ABR Wave I analysis: The auditory brain-stem response (ABR) waveform comprises a set of waves (labeled I-V). Mice were anesthetized with ketamine and xylazine. ABR waveforms were collected using Tucker-Davis Technologies RZ6 Auditory Processor. The stimuli used were 5 ms tone (2 ms cos 2 rise-fall) at frequencies from 4, 8, 16, 24, and 32 kHz delivered in alternating polarity at 21/s. […] Wave I peak amplitudes were determined by extracting the raw waveform voltage averages and determining the window or latency at which the peak of wave I appears. […]
# inner hair cell synapses [2] = assay: Guinea pig kanamycin-induced cochlear synaptopathy model; format: in vivo, Hartley guinea pigs; details: kanamycin 400 mg/kg i.p. 10 days; 30 μl of 2% in vehicle bilateral transtympanic on day 15; three months after
# Method: Beginning on day 0, male Hartley guinea pigs (450-500 g) were deafened by intraperitoneal administration of kanamycin (400 mg/kg) dosed once daily for 10 consecutive days. […] A loss of synapse density in this model has not been described previously. On day 15, animals received bilateral transtympanic injections of vehicle (30 μl), crystalline Compound I (30 μl of 2% in vehicle), or crystalline Compound II (30 μl of 2% in vehicle). Three months after administration of test article, animals were euthanized and cochleae collected and stained with phalloidin and antibodies against CtBP2 and NF-200. The number of CtBP2+/NF-200+ synapses were quantified and normalized to the number of inner hair cells to obtain synapse density. Synapse density was decreased with kanamycin treatment at 14.7 and 17.3 mm from the apex of the cochlea, which in the guinea pig cochlea, tonally correlates with 16 and 32 kHz, respectively, according to the Greenwood frequency map.
# Vehicle (PF10) and GSI in vehicle used in Examples 6 and 7 were prepared as follows: To 129 mL sterile water was added, 0.96 g sodium chloride, 0.59 g sodium phosphate dibasic, and 0.14 g sodium phosphate monobasic. The solution was stirred at ambient temperature and 25.6 g poloxamer 407 was added and stirred overnight to yield a clear solution. […]
# [3] = both 0.2% and 2% dosages in PF10, bilateral, 17 days after noise, 14 days post-dose
smiles,measurement,setting,value
"C[C@H](OC(=O)NCC(F)(F)C(F)(F)F)C(=O)N[C@@H]1C(=O)Nc2ccccc2-c2ccccc21 [Compound I, (2,2,3,3,3-pentafluoropropyl)-carbamic acid (S)-1-((S)-6-oxo-6,7-dihydro-5H-dibenzo[b,d]azepin-7-ylcarbamoyl) ethyl ester]",DCC α-fragment level compared to the vehicle group,DCC α-fragment,Increase in α-fragment
same,synapse recovery in the mid 1 region (16-24 kHz),inner hair cell synapses [1]; [3],nearly complete synapse recovery
same,synapse recovery in the mid 2 region (24-32 kHz),inner hair cell synapses [1]; [3],nearly complete synapse recovery
same,ABR wave I amplitudes,inner hair cell synapses [1]; local administration following noise induced synaptopathy,improved wave I amplitudes
same,synapse density (CtBP2+/NF-200+ synapses per inner hair cell),inner hair cell synapses [2],increased
